# Results taken from patent publication US11975005B2, “Treatment of respiratory diseases” (TIANLI BIOTECH PTY LTD, priority 2015, dated 2024).
# Experiments:
# [1] = system: RSV; test: 5 day model of RSV infection, treatments from day 1; format: in vivo, mice; details: administered from day 1
# [2] = target: CK1ε (Homo sapiens, UniProt P49674); test: CK1ε inhibition (IC50); format: biochemical
# [3] = target: T1, ALK5 (Homo sapiens, UniProt P36897); test: ALK5 inhibition (IC50); format: biochemical
# T1 sequence (P36897 34-503): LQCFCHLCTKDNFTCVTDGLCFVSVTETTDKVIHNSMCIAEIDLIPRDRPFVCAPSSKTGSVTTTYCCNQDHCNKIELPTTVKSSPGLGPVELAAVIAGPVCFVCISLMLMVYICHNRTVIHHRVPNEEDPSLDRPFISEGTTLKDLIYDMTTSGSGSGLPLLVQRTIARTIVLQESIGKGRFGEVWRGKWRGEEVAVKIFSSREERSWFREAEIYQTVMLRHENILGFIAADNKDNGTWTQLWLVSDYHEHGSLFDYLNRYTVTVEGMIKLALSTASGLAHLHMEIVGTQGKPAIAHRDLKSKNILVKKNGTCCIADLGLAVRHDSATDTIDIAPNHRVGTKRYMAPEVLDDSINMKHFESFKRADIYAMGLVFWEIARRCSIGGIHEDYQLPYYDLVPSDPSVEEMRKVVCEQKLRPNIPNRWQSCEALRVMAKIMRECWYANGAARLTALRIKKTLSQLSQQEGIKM
# [4] = system: human lung fibroblasts; test: bFGF/TGFβ proliferation of human lung fibroblasts (viable cell number); format: cell-based; details: 48 h
# Text: Experiments described in the current Example and Example 14 involved culture of human parenchymal fibroblasts, measurement of their proliferation and gene expression response, the methods for which are detailed in Schuliga et al 2009 (Am J Respir Cell Mol Biol. 2009; 41(6):731-41). Interaction between TGFβ and bFGF in human lung fibroblasts. […] An interaction previously characterized in airway smooth muscle cultures is that TGFβ reduces the proliferative effects of bFGF. A similar finding is observed in human lung fibroblasts, whereby TGFβ reduces the bFGF mitogenic effects.
# [5] = system: GRE-dependent gene expression; test: Glucocorticoid-induced gene expression in BEAS-2B cells; format: cell-based, human
# Text: (§1) The methods used in Examples 1 to 5 (and 10, 19, 20) are similar to those reported in Salem et al 2012 (Br J Pharmacol. 166:2036-2048) and again in Keenan et al 2014 (Respiratory Research, e15:55) in which methods for cell culture, GRE assays and gene expression measurements are fully described. Additional methods for growth of respiratory syncytial virus (RSV) and rhinovirus (RV) are described in Collins et al 2007 (Respir Physiol Neurobiol. 2007 Jun. 15; 156(3):345-52.) and by Xatzipsalti and papdopoulos, 2007 (Contrib Microbiol. 2007; 14:33-41).
# Data are presented as the means and SEM of 4 independent experiments. *P<0.05, cf corresponding Dex 30 nM response. […] Thus, TNFα contribution to glucocorticoid resistance, may be independent of TGFβ. The resistance is exemplified by the epithelial sodium channel alpha subunit SCNN1a which assembles into a Na channel that is thought to contribute to water reabsorption from the airspaces that are flooded during acute lung injury.
# TGFβ suppression ranged in magnitude amongst the genes selected for analysis. […] TGFβ and Dex synergise in increasing the expression of PAI-1 (FIG. 24B).
# [6] = system: glucocorticoid response element (GRE) activity; test: GRE activity / GRE reporter in BEAS-2B cells; format: cell-based, human; details: BEAS-2B cells; RV16 0.1 or 1.0 MOI; SB431542 1 μM
# Procedure: Data are presented as the means and SEM of 3 independent experiments. *P<0.05, cf corresponding Dex 30 nM response.
# as §1
# [7] = human lung fibroblasts, PF4800567 1.0 μM
# [8] = FIG. 6A, BEAS-2B, SB431542 1 μM, PF670462 10 μM
# Chain of CK1ε (P49674 whole entry): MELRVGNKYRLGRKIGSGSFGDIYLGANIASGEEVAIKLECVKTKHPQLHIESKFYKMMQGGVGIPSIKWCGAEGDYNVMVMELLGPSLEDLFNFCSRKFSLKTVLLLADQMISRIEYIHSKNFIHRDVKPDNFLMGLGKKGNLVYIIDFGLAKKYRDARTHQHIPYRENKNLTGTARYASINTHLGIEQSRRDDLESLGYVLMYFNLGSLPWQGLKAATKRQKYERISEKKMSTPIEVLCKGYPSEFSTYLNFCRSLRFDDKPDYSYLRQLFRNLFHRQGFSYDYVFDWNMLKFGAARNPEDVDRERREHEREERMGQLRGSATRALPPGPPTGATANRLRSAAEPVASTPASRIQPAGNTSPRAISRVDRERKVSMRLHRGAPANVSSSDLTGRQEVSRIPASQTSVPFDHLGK
SMILES,accumulation of inflammatory cells in the BAL fluid [1],IC50 [2] [µM],IC50 [3] [µM],"bFGF induced mitogenesis [4, 7]","bFGF induced mitogenesis in the presence of TGFβ [4, 7]","suppression of Dex (30 nM) gene expression response (SCNN1a) induced by IL-13/IL-4 ([5]; BEAS-2B cells, IL-13/IL-4 at 10 ng/ml, PF670462 1 or 10 μM, SB431542 1 μM)","impairment of Dexamethasone 30 nM GILZ gene expression responses by RV16 infection ([5]; BEAS-2B cells, RV16 1.0 MOI, pretreatment)","suppression of Dex (30 nM) gene expression response (SCNN1a) induced by the combination TNFα, IL-13 and IL-4 ([5]; BEAS-2B cells, each at 0.1 ng/ml, PF670462 1 or 10 μM, SB431542 1 μM)","TGFβ suppression of glucocorticoid-induced CDKN1C (p57kip2) expression ([5]; BEAS-2B, Dex 100 nM, PF670462 1-10 μM)","levels of GILZ in RV infected cells [5, 8]","levels of GILZ in uninfected cells [5, 8]","RV infection-induced decrease of Dex-induced GILZ expression ([5]; FIG. 6B, BEAS-2B, SB431542 3 μM, PF670462 3 μM)",impairment of Dexamethasone 30 nM GRE responses by Rhinovirus (RV16) infection [6],"effect of TGFβ on bFGF mitogenesis ([4]; human lung fibroblasts from donors without IPF, viable cell number)"
O=C(NC1CCOCC1)c1ccc(-c2cc(-c3c[nH]nc3-c3ccccn3)ccn2)cc1 [GW788388],no activity,18.6,,,,,,,,,,,,
Nc1ncnc2c1c(COc1cccc(Cl)c1)nn2C1CCOCC1 [PF4800567],,0.011,4.13,reduced,remained suppressed,,,,,,,,,
NC(=O)c1ccc(-c2nc(-c3ccc4c(c3)OCO4)c(-c3ccccn3)[nH]2)cc1 [SB431542],,,,,,some impact,greatly diminished,no detectable effect,completely blocked,increased,but not in uninfected cells,prevented,prevented,able to block
